The assay addresses human ALK5 (Homo sapiens (Human), UniProt P36897). The experiment in a line: ADP-GLO Kinases assay, inhibition of ALK5 enzymatic activity. The class given is biochemical. The procedure:
The enzymatic activity of compounds of the present invention was monitored measuring the formation of ADP using the ADP-GLO Kinases assay. Following the incubation of the purified enzyme, a substrate and ATP, the produced ADP was converted into ATP, which in turn was converted into light by Ultra-Glo Luciferase. The luminescent signal positively correlated with ADP amount and kinase activity. Briefly, the kinase reaction was performed by incubating 2.6 nM of the purified, commercially available human ALK5 (recombinant TGF β1 N-term GST-tagged, 80-end), a final concentration of TGFβ1 peptide 94.5 μM (Promega, T36-58) and ultra-pure ATP (Promega V915B). […] All reactions/incubations were performed at 25° C. Compound and ALK5 kinase were mixed and incubated for 15 mins. Reactions were initiated by addition of ATP at a final concentration in the assay of 0.83 μM. After an incubation of 150 min, the reaction was stopped, and ADP production detected with ADP-Glo kit according to manufacturer's indications. The assay was performed in 384-well format and was validated using a selection of reference compounds that was tested in 11 point concentration-response curve.

The mark [1] stands for this setting: Table 4, potency bins, purified recombinant human ALK5, ADP-Glo, 25° C., read-out: ALK5 IC50.

These results are taken from US20240116947A1, “PYRIDO OXAZINE DERIVATIVES AS ALK5 INHIBITORS” (CHIESI FARMACEUTICI S.P.A., priority 2020, published 2024).

Like-named read-outs stand apart in the source and are kept apart here. Where only a bound is given, the exact number is not on record here.

One may read the IC50 as the concentration that gives 50% inhibition.

human ALK5, sequence (P36897 80-503 limits assumed): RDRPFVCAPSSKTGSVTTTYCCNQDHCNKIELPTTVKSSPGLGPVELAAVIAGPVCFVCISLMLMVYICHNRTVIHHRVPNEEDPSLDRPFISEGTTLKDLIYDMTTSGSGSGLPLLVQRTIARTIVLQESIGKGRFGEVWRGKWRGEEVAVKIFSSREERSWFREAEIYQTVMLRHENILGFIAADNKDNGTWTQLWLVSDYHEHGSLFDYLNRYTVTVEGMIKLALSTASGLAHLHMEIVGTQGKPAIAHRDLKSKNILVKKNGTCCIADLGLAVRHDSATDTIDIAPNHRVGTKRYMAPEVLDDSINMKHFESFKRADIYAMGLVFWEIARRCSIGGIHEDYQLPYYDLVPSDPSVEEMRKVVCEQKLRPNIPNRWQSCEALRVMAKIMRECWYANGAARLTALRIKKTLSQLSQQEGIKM

On to `CN1CCC(CCC(=O)Nc2cc(N3CCOc4cnc(-c5cc(Cl)ncc5F)cc43)ccn2)CC1` [Example 41, N-{4-[7-(2-chloro-5-fluoropyridin-4-yl)-1H,2H,3H-pyrido[3,4-b][1,4]oxazin-1-yl]pyridin-2-yl}-3-(1-methylpiperidin-4-yl)propanamide], for which the IC50 under setting [1] was less than 1 nM.

In the case of `CN(CCC(=O)Nc1cc(N2CCOc3cnc(-c4cc(Cl)ccc4F)cc32)ccn1)C1COC1` [Example 19, N-{4-[7-(5-chloro-2-fluorophenyl)-1H,2H,3H-pyrido[3,4-b][1,4]oxazin-1-yl]pyridin-2-yl}-3-[methyl(oxetan-3-yl)amino]propanamide], the half-maximal inhibitory concentration (IC50) under setting [1] was less than 1 nM.

Turning to `CN1CCN(CCC(=O)Nc2cc(N3CCOc4c3cc(-c3cc(Cl)ccc3F)nc4N)ccn2)CC1` [Example 51, N-{4-[5-amino-7-(5-chloro-2-fluorophenyl)-1H,2H,3H-pyrido[3,4-b][1,4]oxazin-1-yl]pyridin-2-yl}-3-(4-methylpiperazin-1-yl)propanamide], the IC50 under setting [1] was less than 1 nM.

With `COC(=O)C1CN(CCC(=O)Nc2cc(N3CCOc4cnc(-c5cc(Cl)ccc5F)cc43)ccn2)CCN1` (stereo not drawn) [Example 46, Methyl 4-[2-({4-[7-(5-chloro-2-fluorophenyl)-1H,2H,3H-pyrido[3,4-b][1,4]oxazin-1-yl]pyridin-2-yl}carbamoyl)ethyl]piperazine-2-carboxylate], under setting [1], the IC50 is less than 1 nM.

With `COC(=O)CC1CN(CCC(=O)Nc2cc(N3CCOc4cnc(-c5cc(Cl)ccc5F)cc43)ccn2)CCN1` (stereo not drawn) [Example 48, Methyl 2-{4-[2-({4-[7-(5-chloro-2-fluorophenyl)-1H,2H,3H-pyrido[3,4-b][1,4]oxazin-1-yl]pyridin-2-yl}carbamoyl)ethyl]piperazin-2-yl}acetate], the 50% inhibitory concentration (IC50) under setting [1] was less than 1 nM.

As for `CN1CCN(CCC(=O)Nc2cc(N3CCOc4cnc(-c5cc(Cl)ccc5F)cc43)ccn2)C(=O)C1` [Example 25, N-{4-[7-(5-chloro-2-fluorophenyl)-1H,2H,3H-pyrido[3,4-b][1,4]oxazin-1-yl]pyridin-2-yl}-3-(4-methyl-2-oxopiperazin-1-yl)propanamide], the IC50 under setting [1] is less than 1 nM.

As to `Fc1ccc(Cl)cc1-c1cc2c(cn1)OCCN2c1ccnc2[nH]cnc12` [Example 17, 7-(5-chloro-2-fluorophenyl)-1-{3H-imidazo[4,5-b]pyridin-7-yl}-1H,2H,3H-pyrido[3,4-b][1,4]oxazine], the IC50 under setting [1] fell in the range of 5 to 10 nM.

On to `Fc1ccc(Cl)cc1-c1cc2c(cn1)OCCN2c1ccn[nH]1` [Example C1, 5-[7-(5-chloro-2-fluorophenyl)-1H,2H,3H-pyrido[3,4-b][1,4]oxazin-1-yl]-1H-pyrazole, reference compound], for which the IC50 by setting is: (Table 5, comparative examples, same in vitro assay, read-out: ALK5 IC50) 9200 nM; (statements in running text, read-out: potency (IC50) with respect to inhibitory activity on ALK5) more than 9000 nM.

On to `CN1CCN(CCC(=O)Nc2cc(N3CCOc4cnc(-c5cc(Cl)ccc5F)cc43)ccn2)CC1` [Example 14, N-{4-[7-(5-chloro-2-fluorophenyl)-1H,2H,3H-pyrido[3,4-b][1,4]oxazin-1-yl]pyridin-2-yl}-3-(4-methylpiperazin-1-yl)propanamide], for which, under setting [1], the concentration for half-maximal inhibition (IC50) is less than 1 nM.

As to `CS(=O)(=O)NCCN1CCN(CCC(=O)Nc2cc(N3CCOc4cnc(-c5cc(Cl)ccc5F)cc43)ccn2)CC1` [Example 30, N-{4-[7-(5-chloro-2-fluorophenyl)-1H,2H,3H-pyrido[3,4-b][1,4]oxazin-1-yl]pyridin-2-yl}-3-[4-(2-methanesulfonamidoethyl)piperazin-1-yl]propanamide], the concentration for half-maximal inhibition (IC50) under setting [1] was less than 1 nM.

Take `CN1CCN(CC(=O)Nc2cc(N3CCOc4cnc(-c5cc(Cl)ccc5F)cc43)ccn2)CC1` [Example 43, N-{4-[7-(5-chloro-2-fluorophenyl)-1H,2H,3H-pyrido[3,4-b][1,4]oxazin-1-yl]pyridin-2-yl}-2-(4-methylpiperazin-1-yl)acetamide]: under setting [1], the IC50 is less than 1 nM.

For the compound `CN1CC2CC1CN2CC(=O)Nc1cc(N2CCOc3cnc(-c4cc(Cl)ccc4F)cc32)ccn1` (stereo not drawn) [Example 52, N-{4-[7-(5-chloro-2-fluorophenyl)-1H,2H,3H-pyrido[3,4-b][1,4]oxazin-1-yl]pyridin-2-yl}-2-{5-methyl-2,5-diazabicyclo[2.2.1]heptan-2-yl}acetamide], under setting [1], the half-maximal inhibitory concentration (IC50) was less than 1 nM.

For the compound `Nc1cc(N2CCOc3cnc(-c4cccc(Cl)c4)cc32)ccn1` [Example 5, 4-[7-(3-chlorophenyl)-1H,2H,3H-pyrido[3,4-b][1,4]oxazin-1-yl]pyridin-2-amine], the IC50 under setting [1] was 5 to 10 nM.

As to `Fc1ccc(Cl)cc1-c1cc2c(cn1)OCCN2c1ccnc2[nH]ncc12` [Example 15, 7-(5-chloro-2-fluorophenyl)-1-{1H-pyrazolo[3,4-b]pyridin-4-yl}-1H,2H,3H-pyrido[3,4-b][1,4]oxazine], the IC50 under setting [1] lay within 1 to 5 nM.
